Assay results from patent US20070169671A1, “Mold Inhibiting Admixture for a Cementitious Material” (priority 2006, published 2007).

Test system: mold
Test: Mold growth on inoculated cementitious material samples
Type: cell-based
Settings: cementitious materials formed from mixtures including calcium propionate solutions (0.05, 0.1, 0.2% by weight of concrete ingredients); inoculated with a composition of mold; after two weeks in an environment conducive of mold growth
Text: Samples of cementitious materials formed from a cementitious mixture including the calcium propionate solutions were inoculated with a composition of mold and placed in an environment conducive of mold growth.

For CCC(=O)[O-].CCC(=O)[O-].[Ca+2] [calcium propionate], the “mold propagation on the cementitious materials” value was “no mold propagation was observed”.
